US8697632B2 (priority 2008, dated 2014)
“And” between values parts separate entries of the source, which are not always exact repeats. Equal values may be shown once. Each block holds one compound with its values, some of them ahead of it. Peptide text beside a SMILES is read from it.

What was measured:
[1] = Rate of model dipeptide cleavage in PBS (model hexapeptide); details: Table 2, dipeptide on side chain of N-terminal para-amino-Phe of HSRGTF-NH2
Protocol: The rate of cleavage was determined for the respective propeptides. The concentrations of the propeptides and the model parent peptide were determined by their respective peak areas. […] The slope of this plot provides the rate constant ‘k’.

[2] = cited from earlier work
[3] = in vivo; cited from earlier work
insulin receptor = target: T1, insulin receptor (Homo sapiens, UniProt P06213); test: Insulin receptor competition binding assay (scintillation proximity); details: Table 9; for Ratio: IGF-1 receptor vs insulin receptor binding
T1 construct: expressed in transfected cells; plasma membrane fragments
T1 sequence (P06213 28-758 limits assumed): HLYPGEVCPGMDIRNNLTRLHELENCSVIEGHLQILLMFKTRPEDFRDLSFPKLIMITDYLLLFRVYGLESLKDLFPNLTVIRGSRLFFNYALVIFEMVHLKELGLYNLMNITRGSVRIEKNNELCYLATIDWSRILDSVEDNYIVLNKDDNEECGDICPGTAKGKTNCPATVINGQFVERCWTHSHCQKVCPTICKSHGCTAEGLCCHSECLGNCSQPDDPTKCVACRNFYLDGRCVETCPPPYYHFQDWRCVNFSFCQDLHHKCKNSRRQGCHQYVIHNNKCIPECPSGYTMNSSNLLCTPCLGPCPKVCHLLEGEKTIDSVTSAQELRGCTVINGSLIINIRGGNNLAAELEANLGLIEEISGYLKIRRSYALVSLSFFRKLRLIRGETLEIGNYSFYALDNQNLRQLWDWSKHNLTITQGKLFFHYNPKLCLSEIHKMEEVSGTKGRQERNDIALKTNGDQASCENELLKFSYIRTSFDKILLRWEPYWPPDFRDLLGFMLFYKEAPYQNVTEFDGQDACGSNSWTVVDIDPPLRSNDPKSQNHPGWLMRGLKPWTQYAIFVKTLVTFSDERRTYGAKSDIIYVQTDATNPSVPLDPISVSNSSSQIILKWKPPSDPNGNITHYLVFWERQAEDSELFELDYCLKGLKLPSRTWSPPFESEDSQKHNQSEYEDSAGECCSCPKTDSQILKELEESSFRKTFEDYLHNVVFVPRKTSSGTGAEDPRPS
T1 sequence (P06213 763-1382 limits assumed): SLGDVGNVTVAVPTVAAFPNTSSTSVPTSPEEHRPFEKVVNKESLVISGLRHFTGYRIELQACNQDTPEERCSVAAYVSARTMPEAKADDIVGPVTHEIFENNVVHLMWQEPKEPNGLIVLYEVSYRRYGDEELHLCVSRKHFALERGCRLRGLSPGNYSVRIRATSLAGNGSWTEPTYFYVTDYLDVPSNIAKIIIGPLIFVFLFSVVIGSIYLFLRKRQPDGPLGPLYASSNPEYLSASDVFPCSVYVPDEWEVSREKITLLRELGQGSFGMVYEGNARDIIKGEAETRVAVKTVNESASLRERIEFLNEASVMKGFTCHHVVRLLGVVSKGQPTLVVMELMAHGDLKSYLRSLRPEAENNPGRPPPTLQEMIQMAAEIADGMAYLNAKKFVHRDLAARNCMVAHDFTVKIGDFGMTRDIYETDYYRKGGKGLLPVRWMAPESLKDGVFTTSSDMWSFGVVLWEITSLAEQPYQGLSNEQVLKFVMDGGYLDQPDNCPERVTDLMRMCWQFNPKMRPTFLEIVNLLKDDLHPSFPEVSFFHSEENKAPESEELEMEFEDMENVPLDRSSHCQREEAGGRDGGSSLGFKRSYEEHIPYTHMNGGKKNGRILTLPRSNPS

IGF-1 receptor = target: T2, IGF-1 receptor (Homo sapiens, UniProt P08069); test: IGF-1 receptor competition binding assay (scintillation proximity); details: Table 9
T2 construct: expressed in transfected cells; plasma membrane fragments
T2 sequence (P08069 31-736 limits assumed): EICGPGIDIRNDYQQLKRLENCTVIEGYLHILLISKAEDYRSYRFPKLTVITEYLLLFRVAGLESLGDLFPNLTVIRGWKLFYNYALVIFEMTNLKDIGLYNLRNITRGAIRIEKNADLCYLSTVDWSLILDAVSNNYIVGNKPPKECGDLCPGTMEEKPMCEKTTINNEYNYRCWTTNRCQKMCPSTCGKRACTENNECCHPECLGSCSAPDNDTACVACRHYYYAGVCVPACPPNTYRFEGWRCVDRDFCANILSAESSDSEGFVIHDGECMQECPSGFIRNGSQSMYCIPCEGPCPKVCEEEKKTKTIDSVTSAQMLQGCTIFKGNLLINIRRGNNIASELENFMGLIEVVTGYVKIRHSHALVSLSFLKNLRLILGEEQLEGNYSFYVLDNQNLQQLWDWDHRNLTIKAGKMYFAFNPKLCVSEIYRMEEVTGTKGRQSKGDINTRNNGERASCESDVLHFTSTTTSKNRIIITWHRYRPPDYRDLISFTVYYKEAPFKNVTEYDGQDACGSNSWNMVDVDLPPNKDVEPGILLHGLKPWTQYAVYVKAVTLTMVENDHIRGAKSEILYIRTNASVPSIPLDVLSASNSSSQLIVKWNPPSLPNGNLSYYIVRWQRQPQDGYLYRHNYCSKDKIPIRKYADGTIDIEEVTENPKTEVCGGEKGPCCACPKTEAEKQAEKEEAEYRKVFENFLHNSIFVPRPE
T2 sequence (P08069 741-1367 limits assumed): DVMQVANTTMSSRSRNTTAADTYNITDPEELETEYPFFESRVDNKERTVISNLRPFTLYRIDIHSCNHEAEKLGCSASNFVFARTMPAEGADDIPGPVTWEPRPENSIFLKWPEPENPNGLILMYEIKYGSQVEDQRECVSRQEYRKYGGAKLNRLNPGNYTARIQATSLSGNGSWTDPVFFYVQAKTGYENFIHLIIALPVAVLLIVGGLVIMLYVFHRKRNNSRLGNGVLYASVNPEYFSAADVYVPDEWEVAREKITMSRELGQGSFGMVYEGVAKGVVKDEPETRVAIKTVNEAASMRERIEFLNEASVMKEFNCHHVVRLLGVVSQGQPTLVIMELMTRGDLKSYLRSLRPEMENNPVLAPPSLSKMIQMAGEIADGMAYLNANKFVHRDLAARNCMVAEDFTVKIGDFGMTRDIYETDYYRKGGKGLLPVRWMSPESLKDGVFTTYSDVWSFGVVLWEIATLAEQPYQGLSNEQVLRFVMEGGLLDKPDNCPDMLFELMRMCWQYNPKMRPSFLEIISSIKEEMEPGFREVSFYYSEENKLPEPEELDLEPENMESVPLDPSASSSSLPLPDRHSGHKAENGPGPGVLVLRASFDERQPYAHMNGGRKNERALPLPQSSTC

[4] = Dipeptide cleavage from prodrug forms of IGF1 peptides in PBS; assay type: physicochemical; details: pH 7.4 at 37° C.
[5] = cited from earlier work; remark: listed apart in the source

Compound: C[C@@H](O)[C@H](NC(=O)CNC(=O)[C@H](CCCNC(=N)N)NC(=O)[C@H](CO)NC(=O)[C@H](Cc1c[nH]cn1)NC(=O)[C@@H](N)Cc1ccc(NC(=O)CNC(=O)CO)cc1)C(=O)N[C@@H](Cc1ccccc1)C(N)=O [Compound 19]
t1/2 (result in words) [1]: No cleavage

Compound: C[C@@H](O)[C@H](NC(=O)CNC(=O)[C@H](CCCNC(=N)N)NC(=O)[C@H](CO)NC(=O)[C@H](Cc1c[nH]cn1)NC(=O)[C@@H](N)Cc1ccc(NC(=O)CNC(=O)CN)cc1)C(=O)N[C@@H](Cc1ccccc1)C(N)=O [Compound 18]
t1/2 (result in words) [1]: No cleavage

Compound: [LysB29-tetradecanoyl, des(B30)]insulin
potency in vivo (in words) [2]: reduced potency in vivo
plasma half life (in words) [3]: increased plasma half life

Insulin Receptor % insulin (in test) (insulin receptor): 14.0% and 11.3% and 20.1%
Ratio (insulin receptor): 22.6
Insulin Receptor % native insulin activity (0.6 nM) (insulin receptor; relative to 0.6 nM): 21.7% and 22.5% and 24.2%
IGF-1 Receptor % IGF-1 (in test) (IGF-1 receptor): 0.9%
Compound: CC[C@H](C)[C@H](NC(=O)CN)C(=O)N[C@H](C(=O)N[C@@H](CC(=O)O)C(=O)N[C@@H](CCC(=O)O)C(=O)N[C@H]1CSSC[C@@H]2NC(=O)[C@H](CO)NC(=O)[C@H](CCCNC(=N)N)NC(=O)[C@H](Cc3ccccc3)NC(=O)[C@H](CSSC[C@H](NC(=O)[C@H](CC(C)C)NC(=O)[C@H](Cc3c[nH]cn3)NC(=O)[C@H](CCC(N)=O)NC(=O)[C@H](CC(N)=O)NC(=O)[C@@H](NC(=O)[C@@H](N)Cc3ccccc3)C(C)C)C(=O)NCC(=O)N[C@@H](CO)C(=O)N[C@@H](Cc3c[nH]cn3)C(=O)N[C@@H](CC(C)C)C(=O)N[C@@H](C(C)C)C(=O)N[C@@H](CCC(=O)O)C(=O)N[C@@H](C)C(=O)N[C@@H](CC(C)C)C(=O)N[C@@H](Cc3ccc(O)cc3)C(=O)N[C@@H](CC(C)C)C(=O)N[C@@H](C(C)C)C(=O)N[C@H](C(=O)NCC(=O)N[C@@H](CC(=O)O)C(=O)N[C@@H](CCCNC(=N)N)C(=O)NCC(=O)N[C@@H](Cc3ccccc3)C(=O)N[C@@H](Cc3ccc(O)cc3)C(=O)N[C@@H](Cc3ccccc3)C(=O)N[C@@H](CC(N)=O)C(=O)N[C@@H](CCCCN)C(=O)N3CCC[C@H]3C(=O)N[C@H](C(N)=O)[C@@H](C)O)CSSC[C@@H](C(=O)N[C@@H](C)C(N)=O)NC(=O)[C@H](Cc3ccc(O)cc3)NC(=O)[C@H](CCSC)NC(=O)[C@H](CCC(=O)O)NC(=O)[C@H](CC(C)C)NC(=O)[C@H](CCCNC(=N)N)NC(=O)[C@H](CCCNC(=N)N)NC(=O)[C@H](CC(C)C)NC(=O)[C@H](CC(=O)O)NC2=O)NC1=O)C(C)C [IGF-1 A:In (1-17)-IGF-1 B (18-30)]

Ratio (insulin receptor): 82.6
Compound: CC[C@H](C)[C@H](NC(=O)CN)C(=O)N[C@H](C(=O)N[C@@H](CC(=O)O)C(=O)N[C@@H](CCC(=O)O)C(=O)N[C@H]1CSSC[C@@H]2NC(=O)[C@H](CO)NC(=O)[C@H](CCCNC(=N)N)NC(=O)[C@H](Cc3ccccc3)NC(=O)[C@H](CSSC[C@H](NC(=O)[C@H](CC(C)C)NC(=O)[C@@H](NC(=O)[C@H](CCC(=O)O)NC(=O)[C@@H]3CCCN3C(=O)CN)[C@@H](C)O)C(=O)NCC(=O)N[C@@H](CO)C(=O)N[C@@H](Cc3c[nH]cn3)C(=O)N[C@@H](CC(C)C)C(=O)N[C@@H](C(C)C)C(=O)N[C@@H](CCC(=O)O)C(=O)N[C@@H](C)C(=O)N[C@@H](CC(C)C)C(=O)N[C@@H](Cc3ccc(O)cc3)C(=O)N[C@@H](CC(C)C)C(=O)N[C@@H](C(C)C)C(=O)N[C@H](C(=O)NCC(=O)N[C@@H](CC(=O)O)C(=O)N[C@@H](CCCNC(=N)N)C(=O)NCC(=O)N[C@@H](Cc3ccccc3)C(=O)N[C@@H](Cc3ccc(O)cc3)C(=O)N[C@@H](Cc3ccccc3)C(=O)N[C@@H](CC(N)=O)C(=O)N[C@@H](CCCCN)C(=O)N3CCC[C@H]3C(=O)N[C@H](C(N)=O)[C@@H](C)O)CSSC[C@@H](C(=O)N[C@@H](C)C(N)=O)NC(=O)[C@H](Cc3ccc(O)cc3)NC(=O)[C@H](CCSC)NC(=O)[C@H](CCC(=O)O)NC(=O)[C@H](CC(C)C)NC(=O)[C@H](CCCNC(=N)N)NC(=O)[C@H](CCCNC(=N)N)NC(=O)[C@H](CC(C)C)NC(=O)[C@H](CC(=O)O)NC2=O)NC1=O)C(C)C

IC50 (insulin receptor; read-out: Insulin Receptor nM IC50:): 0.25 nM
Compound: CC[C@H](C)[C@H](NC(=O)CN)C(=O)N[C@H](C(=O)N[C@@H](CC(=O)O)C(=O)N[C@@H](CCC(=O)O)C(=O)N[C@H]1CSSC[C@@H]2NC(=O)[C@H](CO)NC(=O)[C@H](CCCNC(=N)N)NC(=O)[C@H](Cc3ccccc3)NC(=O)[C@H](CSSC[C@H](NC(=O)[C@H](CC(C)C)NC(=O)[C@H](Cc3c[nH]cn3)NC(=O)[C@H](CCC(=O)O)NC(=O)[C@@H]3CCCN3C(=O)CN)C(=O)NCC(=O)N[C@@H](C)C(=O)N[C@@H](CC(=O)O)C(=O)N[C@@H](CC(C)C)C(=O)N[C@@H](C(C)C)C(=O)N[C@@H](CC(=O)O)C(=O)N[C@@H](C)C(=O)N[C@@H](CC(C)C)C(=O)N[C@@H](Cc3ccc(O)cc3)C(=O)N[C@@H](CC(C)C)C(=O)N[C@@H](C(C)C)C(=O)N[C@H](C(=O)NCC(=O)N[C@@H](CC(=O)O)C(=O)N[C@@H](CCCNC(=N)N)C(=O)NCC(=O)N[C@@H](Cc3ccccc3)C(=O)N[C@@H](Cc3ccc(O)cc3)C(N)=O)CSSC[C@@H](C(=O)N[C@@H](C)C(N)=O)NC(=O)[C@H](Cc3ccc(O)cc3)NC(=O)[C@H](CC[S+](C)[O-])NC(=O)[C@H](CCC(=O)O)NC(=O)[C@H](CC(C)C)NC(=O)[C@H](CCCNC(=N)N)NC(=O)[C@H](CCCNC(=N)N)NC(=O)[C@H](CC(C)C)NC(=O)[C@H](CC(=O)O)NC2=O)NC1=O)C(C)C (stereo partly shown) [IGF-1 A:B (H5D10Y16L17) (S═O)DPI]

Compound: CC[C@H](C)[C@H](NC(=O)CN)C(=O)N[C@H](C(=O)N[C@@H](CC(=O)O)C(=O)N[C@@H](CCC(=O)O)C(=O)N[C@H]1CSSC[C@@H]2NC(=O)[C@H](CO)NC(=O)[C@H](CCCNC(=N)N)NC(=O)[C@H](Cc3ccccc3)NC(=O)[C@H](CSSC[C@H](NC(=O)[C@H](CC(C)C)NC(=O)[C@@H](NC(=O)[C@H](CCC(=O)O)NC(=O)[C@@H]3CCCN3C(=O)CN)[C@@H](C)O)C(=O)NCC(=O)N[C@@H](C)C(=O)N[C@@H](CCC(=O)O)C(=O)N[C@@H](CC(C)C)C(=O)N[C@@H](C(C)C)C(=O)N[C@@H](CC(=O)O)C(=O)N[C@@H](C)C(=O)N[C@@H](CC(C)C)C(=O)N[C@@H](Cc3ccc(O)cc3)C(=O)N[C@@H](CC(C)C)C(=O)N[C@@H](C(C)C)C(=O)N[C@H](C(=O)NCC(=O)N[C@@H](CC(=O)O)C(=O)N[C@@H](CCCNC(=N)N)C(=O)NCC(=O)N[C@@H](Cc3ccccc3)C(=O)N[C@@H](Cc3ccc(O)cc3)C(=O)N[C@@H](Cc3ccccc3)C(=O)N[C@@H](CC(N)=O)C(=O)N[C@@H](CCCCN)C(=O)N3CCC[C@H]3C(=O)N[C@H](C(N)=O)[C@@H](C)O)CSSC[C@@H](C(=O)N[C@@H](C)C(N)=O)NC(=O)[C@H](Cc3ccc(O)cc3)NC(=O)[C@H](CCSC)NC(=O)[C@H](CCC(=O)O)NC(=O)[C@H](CC(C)C)NC(=O)[C@H](CCCNC(=N)N)NC(=O)[C@H](CCCNC(=N)N)NC(=O)[C@H](CC(C)C)NC(=O)[C@H](CC(=O)O)NC2=O)NC1=O)C(C)C [IGF-1 A:B(E10Y16L17)]
IC50 (IGF-1 receptor; IGF-1 Receptor IC50:): 12.2 nM

Compound: CC[C@H](C)[C@H](NC(=O)CN)C(=O)N[C@H](C(=O)N[C@@H](CC(=O)O)C(=O)N[C@@H](CCC(=O)O)C(=O)N[C@@H](C)C(=O)N[C@@H](C)C(=O)N[C@@H](Cc1ccccc1)C(=O)N[C@@H](CCCNC(=N)N)C(=O)N[C@@H](CO)C(=O)N[C@@H](C)C(=O)N[C@@H](CC(=O)O)C(=O)N[C@@H](CC(C)C)C(=O)N[C@@H](CCCNC(=N)N)C(=O)N[C@@H](CCCNC(=N)N)C(=O)N[C@@H](CC(C)C)C(=O)N[C@@H](CCC(=O)O)C(=O)N[C@@H](CCSC)C(=O)N[C@@H](Cc1ccc(NC(=O)[C@@H]2CCCN2C(=O)C(C)(C)N)cc1)C(=O)N[C@@H](C)C(=O)N[C@@H](C)C(N)=O)C(C)C [AiB Pro] (HELM PEPTIDE1{G.I.V.D.E.A.A.F.R.S.A.D.L.R.R.L.E.M.[O=C([C@H](Cc1ccc(N[*:3])cc1)N[*:1])[*:2]].A.A.[am]}|PEPTIDE2{[Aib].P}$PEPTIDE1,PEPTIDE2,19:R3-2:R2$$$V2.0)
dipeptide cleavage / conversion to active form (in words) [4]: spontaneous, non-enzymatic conversion

Compound: [GlyA21, ArgB31, ArgB32]insulin
IGF-1 affinity (in words) [5]: enhanced IGF-1 affinity
